The assay concerns the target human plasma kallikrein (Homo sapiens (Human), UniProt P03952). Nature of the assay: In vitro enzyme inhibition of human plasma kallikrein (Pro-Phe-Arg-AMC cleavage). The format is biochemical. To be noted: human Plasma Kallikrein (Abcam), Pro-Phe-Arg-AMC substrate, 37° C., pH 7.5; read-out: hPK IC50. The procedure: The ability of the compounds disclosed herein to inhibit human plasma kallikrein activity was quantified according to the procedures below.
A 10 mM solution of the test compound was made in DMSO. […] A control tube containing only DMSO is included. 16 μL of each compound test solution was combined with 384 μL of assay buffer (50 mM Tris-HCl pH 7.5, 150 mM NaCl, 0.01% Triton X-100) to yield a “4× test compound buffer stock”.
These solutions are hereby referred to as 4× hPK and 2×PFR-AMC, respectively.
50 μL was removed from this mixture and placed into duplicate wells on a Microfluor 1Black U-bottom microtiter plate (Thermo Scientific). This plate was incubated for 5 minutes at 37° C. To each well, 50 μL of pre-warmed 2×PFR-AMC was added to start the enzymatic reaction. Cleavage of PFR-AMC was monitored in a Biotek Synergy H4 reader set at 37° C. Readings are taken every 43 seconds for 1 hour. […] The IC50 is calculated using the Gen5 (Biotek Instruments).
The ability of the compounds in Table 3 to inhibit human plasma kallikrein activity was determined.

A value given as a limit tells only on which side of the number the result lay.

Sequence of human plasma kallikrein (P03952 391-638 limits assumed): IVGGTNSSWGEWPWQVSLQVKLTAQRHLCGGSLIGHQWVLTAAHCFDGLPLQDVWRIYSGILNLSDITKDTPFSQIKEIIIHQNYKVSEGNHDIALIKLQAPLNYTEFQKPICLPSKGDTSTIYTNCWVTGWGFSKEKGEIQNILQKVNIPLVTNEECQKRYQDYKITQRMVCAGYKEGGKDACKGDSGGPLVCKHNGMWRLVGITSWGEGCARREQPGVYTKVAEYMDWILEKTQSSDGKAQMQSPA
Sequence of human plasma kallikrein (P03952 20-390 partner limits assumed): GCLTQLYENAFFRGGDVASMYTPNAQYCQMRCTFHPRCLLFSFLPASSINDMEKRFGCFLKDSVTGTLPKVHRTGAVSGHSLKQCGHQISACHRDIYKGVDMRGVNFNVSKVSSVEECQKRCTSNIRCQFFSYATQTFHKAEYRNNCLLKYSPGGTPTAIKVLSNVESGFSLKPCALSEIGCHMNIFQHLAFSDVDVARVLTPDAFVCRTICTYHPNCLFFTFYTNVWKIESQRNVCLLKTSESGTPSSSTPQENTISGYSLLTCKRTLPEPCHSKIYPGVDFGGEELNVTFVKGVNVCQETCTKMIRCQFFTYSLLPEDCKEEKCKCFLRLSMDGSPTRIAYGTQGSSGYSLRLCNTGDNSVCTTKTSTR

By IC50 is commonly meant the midpoint of a concentration-inhibition curve. As for “N-((6-amino-2,4-dimethylpyridin-3-yl)methyl)-2-((5-methyl-3a,7a-dihydro-1H-indazol-1-yl)methyl)isonicotinamide [Example 108]”, the IC50 is under 100 nM.

The values above are taken from US11021463B2, “Therapeutic inhibitory compounds” (Attune Pharmaceuticals, Inc., priority 2013, dated 2021).
